Source: patent publication US20260263593A1, “ALLERGY ANTIGEN AND EPITOPE THEREOF” (HOYU CO., LTD., priority 2018, published 2026)

Test system: IgE antibody present in the serum of a shrimp-allergic patient
Experiment: Epitope mapping (1): array of overlapping 15-amino-acid peptides, chemiluminescence
Assay type: binding, human
Details: 15-amino-acid peptide array; serum of 37 patients; difference from N2nd value of 5 non-shrimp-allergic subjects at least 35,000
Procedure: Epitope mapping was carried out using a library of overlapping peptides (length: 15 amino acids) corresponding to the amino acid sequences identified as allergy components of shrimp and the amino acid sequence of arginine kinase. Specifically, the library of overlapping peptides was prepared on the basis of the amino acid sequences of SEQ ID NOs: 117, 141, 146, 2, 45, 87, 276, 161, 230, 179, 362, 381, 399, 421, 455, 481, 486, 520, 541, 300 and 306, and arginine kinase.
The peptides to be synthesized were shifted by 10 amino acids.
For preparation of peptide arrays, the Intavis CelluSpots™ technique was used. Specifically, the peptide arrays were prepared by the following procedure: (1) synthesizing peptides of interest on amino-modified cellulose disks using an automated chemical synthesis apparatus (Intavis MultiPep RS), (2) dissolving the amino-modified cellulose disks to obtain a cellulose-bound peptide solution, and (3) spotting the cellulose-bound peptides onto coated glass slides. The details of each procedure are as described below.
Peptide synthesis was carried out in incremental steps through 9-fluorenylmethoxycarbonyl (Fmoc) chemical reaction on amino-modified cellulose disks in 384-well synthesis plates. Specifically, amino acids in which a Fmoc group is bonded to an amino group were activated in a solution of N,N′-diisopropylcarbodiimide (DIC) and 1-hydroxybenzotriazole (HOBt) in dimethylformamide (DMF) and added dropwise to the cellulose disks so that the Fmoc group-bound amino acids were bound to the amino groups on the cellulose disks (coupling). Unreacted amino groups were capped with acetic anhydride and washed with DMF. Furthermore, the Fmoc groups were eliminated from the amino groups of the amino acids bound to the amino groups on the cellulose disks by treatment with piperidine and washing with DMF. The amino acids bound to the amino groups on the cellulose disks were repetitively subjected to the coupling, the capping, and the Fmoc group elimination described above to elongate the amino terminus for peptide synthesis.
The peptides-bound cellulose disks of interest obtained above in the subsection titled “(1) Synthesis of peptide” were transferred to 96-well plates and treated with a side chain deprotection mixed solution of trifluoroacetic acid (TFA), dichloromethane, triisopropylsilane (TIPS), and water for deprotection of amino acid side chains. Then, the deprotected cellulose-bound peptides were dissolved in a mixed solution of TFA, trifluoromethanesulfonic acid (TFMSA), TIPS, and water and precipitated in tetrabutyl methyl ether (TBME), and the precipitate was resuspended in dimethyl sulfoxide (DMSO) and mixed with a mixed solution of NaCl, sodium citrate, and water to obtain a peptide solution for slide spotting.
The peptide solution for slide spotting obtained above in the subsection titled “(2) Dissolution of amino-modified cellulose disk” was spotted onto Intavis CelluSpots™ slides using Intavis Slide Spotting Robot, and the slides were dried to prepare peptide arrays.
The presence or absence of binding, to each peptide fragment, of an IgE antibody present in the serum of a shrimp-allergic patient was measured through antigen-antibody reaction using the peptide arrays. […]

Substance | Peptide bound to an IgE antibody in serum in a patient-specific manner
E44: common 15-residue IgE-binding epitope sequence of polypeptide (E44), hemocyanin subunit L1-derived (VRIFAWPHLDNNGIK; VAR_SEQ 1..15 epitope) [Epitope E44] | bound to an IgE antibody in serum in a patient-specific manner
E45: common 15-residue IgE-binding epitope sequence of polypeptide (E45), pyruvate kinase 3-derived (WHKQLFTELSQQVHL; VAR_SEQ 1..15 epitope) [Epitope E45] | bound to an IgE antibody in serum in a patient-specific manner
E46: common 15-residue IgE-binding epitope sequence of polypeptide (E46), phosphopyruvate hydratase-derived (TGVHEALEMRDGDKS; VAR_SEQ 1..15 epitope) [Epitope E46] | bound to an IgE antibody in serum in a patient-specific manner
E47: common 15-residue IgE-binding epitope sequence of polypeptide (E47), phosphopyruvate hydratase-derived (HLKAVIKGRFGLDAT; VAR_SEQ 1..15 epitope) [Epitope E47] | bound to an IgE antibody in serum in a patient-specific manner
E48: common 15-residue IgE-binding epitope sequence of polypeptide (E48), troponin I-derived (EEIDRKKAEVRKRLE; VAR_SEQ 1..15 epitope) [Epitope E48] | bound to an IgE antibody in serum in a patient-specific manner
E49: common 15-residue IgE-binding epitope sequence of polypeptide (E49), troponin I-derived (RKKKLRLLLRKKAAE; VAR_SEQ 1..15 epitope) [Epitope E49] | bound to an IgE antibody in serum in a patient-specific manner
E50: common 15-residue IgE-binding epitope sequence of polypeptide (E50), cyclophilin A-derived (AADNQPVGRIVMELR; VAR_SEQ 1..15 epitope) [Epitope E50] | bound to an IgE antibody in serum in a patient-specific manner
